Source: US20150359798A1, “PIPERAZINYL DERIVATIVE REDUCES HIGH-FAT DIET-INDUCED ACCUMULATION OF FAT IN THE LIVERS, […]” (priority 2011, published 2015)

Experiments:
ROCK II = ROCK II expression in liver of HFD mice (8 weeks); assay type: in vivo; conditions: animals treated with HFD
Experimental: In the 8 week experiment, C57BL/6J male mice (21-22 g), after fasting, were fed a HFD as a model of hyperlipidemia for 8 weeks. During the 2 month experiments, mice fasted for one night before the experiment was changed from a standard diet (STD) to a HFD and then the mice were randomly divided into 5 groups, including 2 control and 3 treatment groups. Six mice were used in each group. […] Liver from the protection group supplemented with KMUP-1 HCl (1 mg/kg/day) were used to determine the HMG CoA reductase expression.
For the expression of SR-B1, HMGR, PPARγ and ROCK isolated liver tissues were cut into small chips and placed into an extraction buffer (Tris 10 mM, pH 7.0, NaCl 140 mM, PMSF 2 mM, DTT 5 mM, NP-40 0.5%, pepstatin A 0.05 mM and leupeptin 0.2 mM) for hepatic protein extraction, and centrifuged at 20,000 g for 30 minutes. The obtained protein extract was boiled to a ratio of 4:1 with a sample buffer (Tris 100 mM, pH 6.8, glycerol 20%, SDS 4% and bromophenol blue 0.2%). Electrophoresis was performed using 10% SDS-polyacrylamide gel (1 hour, 100 V, 40 mA, 20 μg protein per lane).
Separated proteins, after 3 repeated centrifugations to discard up-layer tissue lipid inpurity, were transferred to PVDF membranes treated with 5% fat-free milk powder to block the nonspecific IgGs (90 minutes, 100 V) and incubated for 1 hour with specific protein antibody. […]

PKG [1] = assay: Hepatic PKG expression (14-week experiment); assay type: in vivo, mice; conditions: drinking KMUP-1; protection and treatment groups
TNF-α = assay: IHC staining of TNF-α in steatohepatitis liver; assay type: in vivo, mice; conditions: 2.5 mg/kg/day, 14 weeks (protection) and 6 weeks (treatment)
Experimental: (§1) In the 14-week experiment, mice were fed a HFD from week 1 to week 14. During the 3 month experiments, KMUP-1 HCl (2.5 mg) was added to 200 ml tap water and) and drink for 14 weeks or for the last 6 weeks on mice or obese mice fed HFD, separately. 5 mice had free access to drinking water from week 1 to week 14 (protective group) or from week 8 to week 14 (treatment group). Tap water was used to normalize mineral nutrition (Scheme A).
(§2) For IHC of MMP-9/TNFα, HSL/p-HSL/ATGL and eNOS/IL-10, antigen retrieval of de-paraffinated sections was performed in Dako target retrieval solution, pH 9.0, in a vegetable steamer followed by the quenching of endogenous peroxidase activity with 3.0% H2O2 in methanol. Sections were then incubated with specific primary antibodies overnight at 4° C. in a humidified chamber. The antibodies used included rabbit polyclonal anti-eNOS (1:50 dilution) (Abcam, Cambridge, UK) or rabbit monoclonal anti-cleaved caspase-3 (1:50 dilution) (Cell Signaling, USA). The sections were then examined using a DAKO REAL EnVision™ Detection System kit (DAKO, Carpinteria, Calif.) and counterstained with hematoxylin. Images were obtained through a Nikon Eclipse TE200-S microscope.

p-HSL [2] = assay: IHC staining of p-HSL in steatohepatitis liver; assay type: in vivo, mice; conditions: treatment and protection groups
Experimental: as §1, §2

RhoA = RhoA translocation from cytosol to membranes in HepG2 cells; assay type: cell-based
Experimental: (§3) HepG2 cells were treated with various concentrations of drugs for 24 hours. Reactions were terminated by washing twice with cold PBS, and the cells were then harvested, Proteins in the whole-cell lysate were homogenized in an ice-cold lysis buffer and a protease inhibitor (Sigma-Aldrich, St. Louis, Mo., U.S.A.). The homogenate was centrifuged at 90, 000 g for 15 minutes at 4° C., and supernatant was recovered as the total cellular protein. Cytosolic and membrane fractions of HepG2 cells were prepared using a. CNM (Cytosol Nuclear Membrane) compartment protein extraction kit (BioChain Institute Inc., Hayward, Calif., U.S.A.) according to the manufacturer's instructions. All of the fractionated protein solutions were stored at −80° C. until analysis. To measure the expression levels of proteins by drugs, the total cell protein was extracted after incubation with treatments for 24 hours and then Western blotting analysis was performed as described previously.

PPARγ = PPARγ expression in HepG2 cells; assay type: cell-based
Experimental: as §3

ABCA1 = ABCA1 expression in HepG2 cells; assay type: cell-based
Experimental: as §3

LXRα = LXRα expression in HepG2 cells; assay type: cell-based; conditions: HepG2, 10^−9-10^−5 M
Experimental: HepG2 cells were treated with various concentrations of drugs for 24 hours. […] All of the fractionated protein solutions were stored at −80° C. until analysis. To measure the expression levels of proteins by drugs, the total cell protein was extracted after incubation with treatments for 24 hours and then Western blotting analysis was performed as described previously.

PKG [3] = assay: PKG expression and immunoreactivity in HepG2 cells; assay type: cell-based
[4] = molecular target: T1, Human recombinant HMG CoA reductase (Homo sapiens, UniProt P04035); assay: HMG CoA reductase activity, [14C]mevalonate formation; assay type: biochemical; conditions: 10 μM
T1 construct: purchased Sigma-Aldrich (printed 'Sigma-Adrich') H7039; host or cells: E. coli
Experimental: Human recombinant HMG CoA reductase expressed in E. coli (H7039, Sigma-Adrich, Mo, U.S.A.) was used. Human recombinant HMG-CoA reductase, examined by SDS-PAGE to be ≧90% in purity, 2-8 units/mg protein in activity and ˜76 kDa in molecular weight (H7039, Sigma-Adrich, St. Louis, Mo. U.S.A.), was used for determining the formation of [^14C]mevalonate. […] The reaction was initiated by the addition of 2.5 μM [^14C]HMG-CoA for another 20 minutes incubation period and terminated by further addition of 1 N HCl. An aliquot was removed by column and counted to determine the amount of [^14C]mevalonate formed (Ricera® Co. Ltd., Taipei, Taiwan).

eNOS = assay: Table 3 eNOS (% of control); assay type: cell-based; conditions: control group = 100 (%)
Rho-kinase = assay: Table 3 Rho-kinase (% of control); assay type: cell-based; conditions: control group = 100 (%)
p-HSL [5] = assay: Table 3 p-HSL (% of control); assay type: cell-based; conditions: control group = 100 (%)
[6] = HepG2, KMUP-1 10^−9-10^−5 M with FPP or GGPP
[7] = HepG2, simvastatin, KMUP-1, Y27632 10^−5M, C3 exoenzyme

T1 sequence (P04035 426-888 limits assumed): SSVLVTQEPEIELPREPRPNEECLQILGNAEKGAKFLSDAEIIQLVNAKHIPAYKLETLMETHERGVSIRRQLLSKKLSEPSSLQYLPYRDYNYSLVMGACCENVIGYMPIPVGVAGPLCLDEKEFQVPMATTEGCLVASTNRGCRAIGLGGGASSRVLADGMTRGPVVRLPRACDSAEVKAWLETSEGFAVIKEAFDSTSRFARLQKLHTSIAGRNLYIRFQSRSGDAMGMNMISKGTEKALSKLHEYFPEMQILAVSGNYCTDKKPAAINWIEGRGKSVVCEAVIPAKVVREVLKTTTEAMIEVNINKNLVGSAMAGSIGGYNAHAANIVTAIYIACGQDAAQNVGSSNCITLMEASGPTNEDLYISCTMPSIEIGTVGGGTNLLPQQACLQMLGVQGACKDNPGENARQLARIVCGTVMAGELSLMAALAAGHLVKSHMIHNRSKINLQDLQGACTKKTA

Cn1c(=O)c2c(ncn2CCN2CCN(c3ccccc3Cl)CC2)n(C)c1=O [KMUP-1, 7-[2-[4-(2-chlorophenyl)piperazinyl]ethyl]-1,3-dimethyl xanthine]
ROCK II in liver (ROCK II): inactivated
hepatic PKG expression (PKG [1]): promote
TNF-α immunohistochemistry on fatty liver slices (TNF-α): inhibited partial
p-HSL (IHC, liver) (p-HSL [2]): activation
translocation of RhoA from cytosol to membranes (RhoA): concentration-dependently inhibited
increase of PPARγ (PPARγ; HepG2): 2-3 fold
expression of PPARγ (PPARγ; HepG2, 10^−9-10^−5 M): increased
FPP- or GGPP-suppressed expression of PPARγ (PPARγ; [6]): reversed
PPARγ expression (FIG. 24C) (PPARγ; [7]): increased
expression of ABCA1 (ABCA1; HepG2, 10^−9-10^−5 M): increased
FPP- or GGPP-suppressed expression of ABCA1 (ABCA1; [6]): reversed
ABCA1 expression (FIG. 24D) (ABCA1; [7]): increased
LXRα expression (LXRα): concentration-dependently increased
expression of PKG (PKG [3]; 10, 20, 40 µM, in the presence of LDL (500 μg/mL)): increased
PKG immunoreactivity (PKG [3]; data not shown): not significantly affected
[14C]mevalonate formation [4]: could not reduce
eNOS (eNOS; 0.1 μM): 121.6 ± 16.5%
eNOS (eNOS; 1.0 μM): 132.7 ± 15.2%
eNOS (eNOS; 10 μM): 138.9 ± 15.2%
Rho-kinase (Rho-kinase; 0.1 μM): 82.8 ± 7.8%
Rho-kinase (Rho-kinase; 1.0 μM): 78.4 ± 6.9%
Rho-kinase (Rho-kinase; 10 μM): 75.8 ± 6.4%
p-HSL (p-HSL [5]; 0.1 μM): 120.7 ± 15.3%
p-HSL (p-HSL [5]; 1.0 μM): 138.6 ± 14.7%
p-HSL (p-HSL [5]; 10 μM): 144.6 ± 12.3%
